Source: patent publication US10894035B2, “Use of indole compounds to stimulate the immune system” (priority 2015, dated 2021)

Key:
[1] = biological target: T1, sPLA2GXIIA (Homo sapiens, UniProt Q9BZM1); test: sPLA2 specificity panel (Table 1); assay type: biochemical; details: panel of secreted PLA2, result in words
T1 sequence (Q9BZM1 23-189): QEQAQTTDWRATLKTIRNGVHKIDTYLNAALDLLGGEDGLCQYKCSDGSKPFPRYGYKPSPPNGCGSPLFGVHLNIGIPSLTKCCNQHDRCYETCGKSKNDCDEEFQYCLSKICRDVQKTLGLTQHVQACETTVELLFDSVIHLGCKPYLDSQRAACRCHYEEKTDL

[2] = biological target: T2, sPLA2GIID (Homo sapiens, UniProt Q9UNK4); test: sPLA2 specificity panel (Table 1); assay type: biochemical; details: panel of secreted PLA2, result in words
T2 sequence (Q9UNK4 21-145): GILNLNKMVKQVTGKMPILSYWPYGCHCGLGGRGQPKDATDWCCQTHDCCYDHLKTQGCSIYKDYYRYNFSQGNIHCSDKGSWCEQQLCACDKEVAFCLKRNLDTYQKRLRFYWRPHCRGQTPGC

[3] = biological target: sPLA2G1B (Homo sapiens, UniProt P04054); test: E. coli membrane sPLA2 activity assay ([3H]oleic acid release); assay type: biochemical
Method: The activity of compounds of formula A towards sPLA2G1B can be tested and verified using the E. coli membrane assay described below:
The assay is based on the ability of E. coli membranes to incorporate exogenously added fatty acids such as oleic acid (OA). The use of radiolabelled OA allows to follow the incorporation of this fatty acid into membrane phospholipids of E. Coli and its release upon PLA2-mediated hydrolysis of these membranes. Preincubation of the samples, before the assay, with a specific inhibitor or a neutralizing specific antibody directed against the given sPLA2 can indicate which sPLA2 type is detected.
An overnight culture of E. coli was diluted 1:20 in Luria Broth (LB) medium and incubated at 37° C. for 5 h with vigorous shaking in the presence of 1 mCi/ml [3H]OA (NET 289, NEN, 5 mCi/ml). […]
The reaction was carried out in a 37° C. water bath for 30 min and stopped with stop buffer containing 0.1 M EDTA and 0.2% free-fatty acids BSA. Then the tubes were centrifuged to spin down E. Coli membranes and aliquotes of supernatants were counted to monitor the [3H]OA released from these membranes. […]
The sPLA2 activity (A) is calculated as follows: A=A1−A2/B×100. […]
A is expressed as the % hydrolysis of the total radioactivity incorporated in the E. coli membranes.

[4] = biological target: T3, sPLA2GV (Homo sapiens, UniProt P39877); test: sPLA2 specificity panel (Table 1); assay type: biochemical; details: panel of secreted PLA2, result in words
T3 sequence (P39877 21-138): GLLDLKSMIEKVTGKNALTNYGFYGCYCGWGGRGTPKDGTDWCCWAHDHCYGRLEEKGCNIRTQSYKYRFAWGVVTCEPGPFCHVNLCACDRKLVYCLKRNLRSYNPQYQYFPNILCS
Excerpt: IC50 values for a panel of secreted Phospholipase A2 (sPLA2) are shown.

[5] = biological target: T4, sPLA2GIII (Homo sapiens, UniProt Q9NZ20); test: sPLA2 specificity panel (Table 1); assay type: biochemical; details: panel of secreted PLA2, result in words
T4 sequence (Q9NZ20 20-509): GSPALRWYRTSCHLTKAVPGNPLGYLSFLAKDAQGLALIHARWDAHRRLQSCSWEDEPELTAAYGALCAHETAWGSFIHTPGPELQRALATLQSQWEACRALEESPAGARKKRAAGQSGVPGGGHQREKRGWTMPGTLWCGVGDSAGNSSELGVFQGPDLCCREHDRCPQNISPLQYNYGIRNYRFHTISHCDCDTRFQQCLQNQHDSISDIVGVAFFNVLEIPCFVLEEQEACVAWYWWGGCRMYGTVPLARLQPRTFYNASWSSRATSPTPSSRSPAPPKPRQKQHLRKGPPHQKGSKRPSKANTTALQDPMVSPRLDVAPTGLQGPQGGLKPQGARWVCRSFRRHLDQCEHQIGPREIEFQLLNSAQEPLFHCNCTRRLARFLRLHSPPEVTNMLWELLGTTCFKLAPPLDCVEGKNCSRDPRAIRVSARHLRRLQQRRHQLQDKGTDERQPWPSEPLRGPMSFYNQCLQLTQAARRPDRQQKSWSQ

[6] = biological target: sPLA2GIB (Homo sapiens, UniProt P04054); test: sPLA2 specificity panel (Table 1); assay type: biochemical; details: panel of secreted PLA2, result in words
[7] = biological target: T5, Recombinant PLA2G1B (Homo sapiens, UniProt P04054); test: Bioassay of IL-7-induced pSTAT5 nuclear translocation in CD4 T cells exposed to recombinant PLA2G1B; assay type: cell-based
T5 construct: made in house; host or cells: E. coli (inclusion bodies, urea-solubilized, renatured, HPLC-purified)
Method: sPLA2G1B was produced in E. Coli. Inclusion bodies were solubilized in urea and afterwards renatured. sPLA2G1B was further purified by HPLC. Homogeneity of the preparations was verified by MassSpectrometry (Malditoff). The specific activity of the enzyme was always measured and compared to standard preparations.
(§1) Inhibition of IL-7-induced phosphorylated STAT5 nuclear translocation (NTpSTAT) was measured as follows: VP plasma (5 or 10%) was first incubated with purified HD CD4 T cells (20 min) before stimulation by IL-7 (2 nM, 15 min.). Cells were then plated on polylysine coated glass slides before fixation by PFA (1.5%) and permeabilization by methanol (90% at −20° C.). pSTAT5 was then stained by rabbit anti-STAT5 and labeled with goat anti-rabbit-Atto642. The cells were analyzed by pulsed STED microscopy and the number of nuclei expressing pSTAT5 were counted.
The experiment was repeated twice. From the experimental data we derived the corresponding theoretical curve that gives the IC50.

[8] = biological target: T6, sPLA2G1B contained in plasma of viremic patients (Homo sapiens, UniProt P04054); test: Bioassay of IL-7-induced pSTAT5 nuclear translocation in healthy-donor CD4 T cells exposed to plasma/sera of viremic HIV-infected patients; assay type: cell-based; details: for reversion of inhibition of pSTAT5 nuclear translocation: 50 μM compound; for reversal of plasma/sera-induced inhibition of IL-7-induced NT pSTAT5: 50 microM compound
T6 construct: CD4 lymphocytes purified from healthy donors were exposed to sera from viremic HIV-infected patients at 3% dilution; from tissue; host or cells: plasma/sera of viremic HIV-infected patients, applied to CD4 T cells of healthy donors
Method: Five sera were tested and the results are given as the median +/−SD.
Viremic patients (VP) included in the study had been HIV-positive for more than one year. […] All blood samples from VP were drawn at Hôpital Bicêtre or Centre Hospitalier de Gonesse.
as §1
We have already shown that sPLA2G1B contained in plasma of viremic patients through induction of aMMD induces a blockade of IL-7-induced nuclear translocation of phospho STAT5 (NT pSTAT5).
The effects of plasma from various HIV viremic patients (at least 5) were first titrated on the inhibition of IL-7-induced NTpSTAT5. The inhibition is measurable at 1% dilution of the plasma and the effect is maximum at 10% of the plasma. Consequently, in the experiments we used the different plasma at 3% dilution which gives between 30 to 70% of the maximum inhibition. […] The inhibition obtained with the recombinant enzyme reaches a plateau corresponding to a maximum inhibition of around 80%. By contrast, the plateau obtained when the plasma is used is around 90% inhibition, or more (compare data of FIGS. 1 and 2 with data FIG. 3).
In a further study, the plasma from 5 additional HIV-infected patients was tested. […] 100% inhibition of nuclear translocation of pSTAT5 is observed (see FIG. 4).

[9] = biological target: T7, sPLA2GIIE (Homo sapiens, UniProt Q9NZK7); test: sPLA2 specificity panel (Table 1); assay type: biochemical; details: panel of secreted PLA2, result in words
T7 sequence (Q9NZK7 20-142): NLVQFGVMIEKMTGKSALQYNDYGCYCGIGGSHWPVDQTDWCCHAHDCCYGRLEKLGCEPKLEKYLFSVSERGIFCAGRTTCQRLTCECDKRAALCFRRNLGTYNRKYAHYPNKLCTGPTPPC

[10] = recombinant PLA2G1B 75 nanoM, pre-exposed 30 mn to compound, FIG. 1

T6 sequence (P04054 23-148): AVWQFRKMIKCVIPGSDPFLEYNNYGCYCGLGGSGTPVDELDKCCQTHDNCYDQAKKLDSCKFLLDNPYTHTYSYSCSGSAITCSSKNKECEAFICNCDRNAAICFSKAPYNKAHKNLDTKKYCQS
T5 sequence (P04054 23-148): as above
Sequence of sPLA2G1B (P04054 23-148): as above
Sequence of sPLA2GIB (P04054 23-148): as above

CCc1c(C(=O)C(N)=O)c2c(OCC(=O)O)cccc2n1Cc1ccccc1 [Compound B]
recognition/binding of sPLA2GXIIA [1]: does not recognize or bind | IC50 sPLA2GIID [2]: significant IC50 | inhibitory effect on sPLA2G1B activity [3]: particularly strong inhibitory effect | IC50 sPLA2GV [4]: significant IC50 | recognition/binding/activity towards sPLA2GIII (group III PLA2) [5]: does not recognize or bind | recognition/binding/activity towards sPLA2GIII (group III PLA2) ([5]; listed as compound B): no activity | IC50 sPLA2GIB [6]: significant IC50 | IC50 [7]: 6.01 µM | concentration at which inhibitory effects are maximum [7, 10]: 8 µM | concentration at which inhibitory effects begin [7, 10]: 5 µM | plateau, maximum inhibition ([7]; recombinant enzyme in serum free buffer): around 80% | reversion of inhibition of pSTAT5 nuclear translocation ([8]; 1% plasma, FIG. 4): the reversion is complete | reversion of inhibition of pSTAT5 nuclear translocation ([8]; 3% plasma, FIG. 4): about 90% | reversal of plasma/sera-induced inhibition of IL-7-induced NT pSTAT5 ([8]; sera at 1% or 3% dilution, 5 additional patients, FIG. 4): completely reverse this inhibition | reversal of plasma/sera-induced inhibition of IL-7-induced NT pSTAT5 ([8]; sera at 1% or 3% dilution, 5 additional patients, FIG. 4, listed as compound B): totally reversed this inhibition | reversal of plasma/sera-induced inhibition of IL-7-induced NT pSTAT5 ([8]; sera at 3% dilution, five sera, FIG. 3): revert the inhibitory activity of the plasma | reversal of plasma/sera-induced inhibition of IL-7-induced NT pSTAT5 ([8]; sera at 3% dilution, five sera, FIG. 3, listed as compound B): totally reversed this inhibition | plateau inhibition when plasma is used ([8]; plasma of viremic patients): ≥ 90% | IC50 sPLA2GIIE [9]: significant IC50
